Values joined by “and” are separate entries in the source; they are usually repeats but may differ in a detail not shown here. Identical values can stand only once. Like-named read-outs stand apart in the source and are kept apart here.
What was measured:
[1] = test system: Sclerotinia sclerotiorum; experiment: Fungicidal activity, fungicide growth rate method, SS; format: cell-based; details: 50 μg/mL; for inhibition at 50 µg/mL: Sclerotinia sclerotiorum
[2] = test system: Cercospora arachidicola; experiment: Fungicidal activity, fungicide growth rate method, CA; format: cell-based; details: 50 μg/mL; for inhibition at 50 µg/mL: Mycosphaerella arachidis, read-out: fungicidal activity (growth inhibition rate), CA
[3] = test system: Tobacco Mosaic Virus; experiment: Anti-TMV inactivation activity on tobacco plants; format: in vivo; set-up: concentration or dose not given beside the values; details: compound mixed with TMV solution 30 minutes, lesions checked three days later
[4] = test system: Helicoverpa armigera (Hübner); experiment: Insecticidal activity against Helicoverpa armigera (Hübner); format: in vivo; details: for pest or weed control at 100 µg/mL: Helicoverpa armigera, read-out: insecticidal activity, Helicoverpa armigera (Hübner)
[5] = test system: Ostrinia furnacalis; experiment: Insecticidal activity against Ostrinia furnacalis; format: in vivo; details: for pest or weed control at 100 µg/mL: Ostrinia furnacalis, read-out: insecticidal activity, Ostrinia furnacalis
[6] = test system: Caenorhabditis elegans; experiment: Insecticidal activity against Caenorhabditis elegans; format: in vivo; details: Caenorhabditis elegans, read-out: insecticidal activity, Caenorhabditis elegans
[7] = test system: wheat Gibberella zeae; experiment: microbe, parasite or virus in culture; format: cell-based; details: for inhibition at 50 µg/mL: Fusarium graminearum, read-out: fungicidal activity (growth inhibition rate), GZ, 50 μg/mL
[8] = test system: Botrytis cinerea; experiment: Fungicidal activity, fungicide growth rate method, BC; format: cell-based; details: 50 μg/mL; for inhibition at 50 µg/mL: Botrytis cinerea, read-out: fungicidal activity (growth inhibition rate), BC
[9] = test system: Alternaria solani; experiment: Fungicidal activity, fungicide growth rate method, AS; format: cell-based; details: 50 μg/mL; for inhibition at 50 µg/mL: Alternaria solani, read-out: fungicidal activity (growth inhibition rate), AS
[10] = test system: Phytophthora infestans (Mont.) de Bary; experiment: microbe, parasite or virus in culture; format: cell-based; details: for inhibition at 50 µg/mL: Phytophthora infestans, read-out: fungicidal activity (growth inhibition rate), PI, 50 μg/mL
[11] = test system: Rhizoctonia cerealis; experiment: Fungicidal activity, fungicide growth rate method, RC; format: cell-based; details: 50 μg/mL; for inhibition at 50 µg/mL: Ceratobasidium cereale, read-out: fungicidal activity (growth inhibition rate), RC
[12] = test system: Pellicularia sasakii; experiment: Fungicidal activity, fungicide growth rate method, PS; format: cell-based; details: 50 μg/mL; for inhibition at 50 µg/mL: read-out: fungicidal activity (growth inhibition rate), PS
[13] = test system: Physalospora piricola; experiment: Fungicidal activity, fungicide growth rate method, PP; format: cell-based; details: 50 μg/mL; for inhibition at 50 µg/mL: read-out: fungicidal activity (growth inhibition rate), PP
[14] = test system: Mythimna separate (Walker); experiment: Insecticidal activity against Mythimna separate (Walker); format: in vivo; details: for pest or weed control at 100 µg/mL: Mythimna, read-out: insecticidal activity, Mythimna separate (Walker)
[15] = test system: Apis mellifera ligustica Spin; details: for Death number after 24 h / Death number after 48 h: per replicate of 10 bees

| Structure (SMILES) | inhibition at 50 µg/mL [1] | inhibition at 50 µg/mL [2] | TMV inactivation (anti-TMV activity) [3] | pest or weed control at 100 µg/mL ([4]; 100 μg/mL) | pest or weed control at 100 µg/mL ([5]; 100 μg/mL) | pest or weed control at 100 µg/mL ([6]; 100 μg/mL) | inhibition at 50 µg/mL [7] | inhibition at 50 µg/mL [8] | inhibition at 50 µg/mL [9] | inhibition at 50 µg/mL [10] | inhibition at 50 µg/mL [11] | inhibition at 50 µg/mL [12] | inhibition at 50 µg/mL [13] | pest or weed control at 100 µg/mL ([14]; 100 μg/mL) | also measured |
| --- | --- | --- | --- | --- | --- | --- | --- | --- | --- | --- | --- | --- | --- | --- | --- |
| CO[C@@H]1CC(=O)[C@@]2(O)CC=CC[C@H]12 [Zyj06-111-2] | 10% | > 50% | 24% | 50% | 40% | > 30% | 47% | 39% | 14% | 31% | 0% | 0% |  |  |  |
| C=CC[C@@H]1C[C@]2(O)CC(=O)O[C@@]23C[C@H]2O[C@H]2C[C@H]13 [Zyj07-13] |  | 8% | 11% |  |  | 20% | 14% | > 50% | 10% | 0% | 43% | 6% | 30% |  |  |
| C=CC[C@@H]1C[C@]2(O)C[C@H](O[C@]34CCO[C@@]35CC=CC[C@H]5[C@H](CC=C)C4)O[C@@]23CC=CC[C@H]13 [Zyj07-30-2] |  |  | 16% |  |  |  |  |  |  |  |  |  |  |  | fungicidal activity (growth inhibition rate), PP [13]: 48%; fungicidal activity (growth inhibition rate), SS [1]: 95%; fungicidal activity (growth inhibition rate), CA [2]: 73%; insecticidal activity, Helicoverpa armigera (Hübner) ([4]; 100 μg/mL): 0%; insecticidal activity, Ostrinia furnacalis ([5]; 100 μg/mL): 0%; insecticidal activity, Mythimna separate (Walker) ([14]; 100 μg/mL): 0%; fungicidal activity (growth inhibition rate), GZ ([7]; 50 μg/mL): 27%; fungicidal activity (growth inhibition rate), BC [8]: 34%; fungicidal activity (growth inhibition rate), AS [9]: 0%; fungicidal activity (growth inhibition rate), PI ([10]; 50 μg/mL): 14%; fungicidal activity (growth inhibition rate), RC [11]: 0%; fungicidal activity (growth inhibition rate), PS [12]: 0% |
| C=CC[C@@H]1C[C@]2(O)CCO[C@@]23C[C@H](O)CC[C@H]13 [Zyj07-32] |  | > 50% | 9% | 0% | 0% | 20% | 33% | 23% | > 60% | > 60% | 39% | 16% |  | 0% | Death rate after 48 h (%) ([15]; dosage 2.73 μg a.i./bee): 10.0%; Death number after 24 h ([15]; dosage 2.73 μg a.i./bee): 0 and 2; Death number after 48 h ([15]; dosage 2.73 μg a.i./bee): 0 and 2; Death rate after 48 h (%) ([15]; dosage 10.0 μg a.i./bee): 5.0%; Death number after 24 h ([15]; dosage 10.0 μg a.i./bee): 0; Death number after 48 h ([15]; dosage 10.0 μg a.i./bee): 1 and 0 |
| C=CC[C@@H]1C[C@]2(OC(C)=O)C[C@@H](OC(C)=O)O[C@@]23CC=CC[C@H]13 [Zyj07-37-1] | > 50% | 14% | 16% | 15% | 10% | 20% | 0% |  | 14% | 15% | 7% | 0% | > 50% | 20% | Death rate after 48 h (%) ([15]; dosage 7.55 μg a.i./bee): 0%; Death number after 24 h ([15]; dosage 7.55 μg a.i./bee): 0; Death number after 48 h ([15]; dosage 7.55 μg a.i./bee): 0; Death rate after 48 h (%) ([15]; dosage 15.3 μg a.i./bee): 0%; Death number after 24 h ([15]; dosage 15.3 μg a.i./bee): 0; Death number after 48 h ([15]; dosage 15.3 μg a.i./bee): 0 |
| CC(=O)O[C@@]12C[C@H]3CC=CC[C@@]1(O3)[C@@H]1CC=CC[C@@H]1C2 [Zyj07-41-2] |  | > 50% | 18% | 15% | 0% | 12% | 20% | 34% | 14% | 25% |  | 41% | > 50% | 10% | Death rate after 48 h (%) ([15]; dosage 8.70 μg a.i./bee): 0%; Death number after 24 h ([15]; dosage 8.70 μg a.i./bee): 0; Death number after 48 h ([15]; dosage 8.70 μg a.i./bee): 0; Death rate after 48 h (%) ([15]; dosage 13.5 μg a.i./bee): 0%; Death number after 24 h ([15]; dosage 13.5 μg a.i./bee): 0; Death number after 48 h ([15]; dosage 13.5 μg a.i./bee): 0 |
| C=CC[C@@H]1C[C@]2(O[Si](C)(C)CC=C)CCO[C@@]23CC[C@H](O[Si](C)(C)CC=C)C[C@@H]13 [Zyj07-48] | > 50% | 35% |  |  |  |  | 7% | > 50% | 0% | 19% | 0% | 14% | 13% |  | Death rate after 48 h (%) ([15]; dosage 9.89 μg a.i./bee): 5.0%; Death number after 24 h ([15]; dosage 9.89 μg a.i./bee): 0; Death number after 48 h ([15]; dosage 9.89 μg a.i./bee): 0 and 1; Death rate after 48 h (%) ([15]; dosage 19.8 μg a.i./bee): 0%; Death number after 24 h ([15]; dosage 19.8 μg a.i./bee): 0; Death number after 48 h ([15]; dosage 19.8 μg a.i./bee): 0; pest or weed control at 100 µg/mL [4]: 0%; pest or weed control at 100 µg/mL [5]: 0%; pest or weed control at 100 µg/mL [6]: 25%; pest or weed control at 100 µg/mL [14]: 0% |
| C=CC[Si](C)(C)O[C@@]12CCO[C@@]13CC[C@H]1C[C@H]3[C@H](CC=CC[Si](C)(C)O1)C2 [Zyj07-49] | > 50% |  | 28% |  |  |  |  | 34% |  | 16% |  | 45% |  |  | Death rate after 48 h (%) ([15]; dosage 6.06 μg a.i./bee): 0%; Death number after 24 h ([15]; dosage 6.06 μg a.i./bee): 0; Death number after 48 h ([15]; dosage 6.06 μg a.i./bee): 0; Death rate after 48 h (%) ([15]; dosage 19.8 μg a.i./bee): 0%; Death number after 24 h ([15]; dosage 19.8 μg a.i./bee): 0; Death number after 48 h ([15]; dosage 19.8 μg a.i./bee): 0; pest or weed control at 100 µg/mL [4]: 0%; pest or weed control at 100 µg/mL [5]: 0%; pest or weed control at 100 µg/mL [6]: 15%; pest or weed control at 100 µg/mL [14]: 20% |
| C=CC[C@@H]1C[C@@]2(OC(C)=O)C[C@@H](CC=C)[C@H]3C[C@H]4O[C@H]4C[C@@]32O1 [Zyj07-67-1] |  | 14% | 7% | 10% | 5% |  | 23% | > 50% | 0% | 32% | 0% | 18% | 31% | 20% |  |
| C=CC[C@@H]1C[C@@]2(O)C[C@@H](CC=C)[C@H]3C[C@@H](O)CC[C@@]32O1 [Zyj07-68] | > 50% | 19% |  | 0% | 0% | 13% | 0% | 36% | 3% | 13% | 21% | 9% | 2% | 0% | Death rate after 48 h (%) ([15]; dosage 9.97 μg a.i./bee): 10.0%; Death number after 24 h ([15]; dosage 9.97 μg a.i./bee): 0; Death number after 48 h ([15]; dosage 9.97 μg a.i./bee): 1; Death rate after 48 h (%) ([15]; dosage 16.1 μg a.i./bee): 0%; Death number after 24 h ([15]; dosage 16.1 μg a.i./bee): 0; Death number after 48 h ([15]; dosage 16.1 μg a.i./bee): 0 |
| O=C1C[C@@]2(O)CC[C@H]3CC=CC[C@@]32O1 [Zyj07-96] | > 50% |  | 23% | 15% | 10% |  | > 50% | 25% | > 60% | 24% |  | > 60% |  | > 30% | Death rate after 48 h (%) ([15]; dosage 9.54 μg a.i./bee): 0%; Death number after 24 h ([15]; dosage 9.54 μg a.i./bee): 0; Death number after 48 h ([15]; dosage 9.54 μg a.i./bee): 0; Death rate after 48 h (%) ([15]; dosage 15.5 μg a.i./bee): 0%; Death number after 24 h ([15]; dosage 15.5 μg a.i./bee): 0; Death number after 48 h ([15]; dosage 15.5 μg a.i./bee): 0 |

— patent US11716992B2, “5A5B6C tricyclic spirolactone derivative, preparation method therefor and use thereof” (NANKAI UNIVERSITY, priority 2017, dated 2023)
